According to patent US4855321A, “Antihypercholesterolemic compounds” (Merck & Co., Inc., priority 1988, dated 1989):

Test system: HMG-CoA reductase
Test: HMG-CoA Reductase Inhibition Assay (in vitro, [14C]HMG-CoA, relative to compactin)
Type: biochemical, rat (male Holtzman Sprague-Dawley)
Conditions: compactin assigned 100; IC50 of test compound compared with that of compactin determined simultaneously; pH 7.2, 40 min, 37° C.; lactone converted in situ to sodium salt of dihydroxy acid
Procedure: The intrinsic HMG-CoA reductase inhibition activity of the claimed compounds is measured in the in vitro protocol published in J. Med. Chem., 28, p. 347-358 (1985) and described below:
Male Holtzman Sprague-Dawley rats (225-250 g) were kept on reversed lighting and fed Purina rat chow containing 3% cholestyramine for 7 days preceding their sacrifice by CO2 asphyxiation. Livers were removed 6 hours into the dark cycle and used immediately to prepare microsomes. […]
Test compounds or compactin (after first being converted to the sodium salt of their dihydroxy acid form in situ by addition of 1N NaOH (1 equivalent) were added to the assay system in 10-μl volumes at multiconcentration levels. After a 40-minute incubation at 37° C. to ensure the complete lactionization of mevalonic acid to mevalonolactone, 0.2 ml of the mixture was added to an 0.5×5.0 cm column containing 100-200 mesh BioRex 5, chloride form (Bio-Rad), wetted with distilled water, as described by Alberts et al., [J. Proc. Natl. Acad. Sci. U.S.A., 1980, 77, 3957]. The unreacted [^14 C]HMG-CoA was absorbed on the resin and the [^14 C] mevalonolactone was eluted with distilled water (2×1 ml) directly into 7-ml scintillation vials. Five milliliters of Aquasol-2 (New England Nuclear) was added to each vial, and radioactivity was measured in a Packard Tri Carb Prias scintillation counter. […]

SMILES: Cc1cc(C)c(/C=C/[C@H]2C[C@H](O)CC(=O)O2)c(-c2ccc(F)c(CO)c2)c1 (relative stereo) [trans-(E)-6-[2-[4'-fluoro-3'-(hydroxymethyl)-3,5-dimethyl[1,1'-biphenyl]-2-yl]ethenyl]-3,4,5,6-tetrahydro-4-hydroxy-2H-pyran-2-one]
- relative potency (intrinsic HMG-CoA reductase inhibitory activity) when compared to compactin at 100: 26.5
